Data: US20210393616A1, “PHARMACEUTICAL COMPOSITIONS AND METHODS FOR TREATING PSYCHOSIS” (UNIVERSITA' DEGLI STUDI DI CAGLIARI, priority 2018, published 2021)

Experiments:
[1] = test system: D2 receptors; assay: Contractility of the rabbit ear artery, antagonism of the selective D2 agonist quinpirol; conditions: for antagonism of the effect of the selective D2 agonist quinpirol: 100 nM
[2] = test system: rats; assay: Pre-pulse inhibition (PPI) deficit induced by MK-801; type: in vivo, rat; conditions: RS-79948-197 3 mg/kg i.p.; MK-801 0.1 mg/kg i.p.; FIG. 3
Experimental: The data are the average of 4-8 rats. *P<0.05, **P<0.01 vs. VEH+MK (one-way ANOVA followed by Tukey's Test).
The activity of RS-79948-197 was also evaluated on the deficit of “pre-pulse inhibition” (PPI) induced by MK-801, an antagonist of NMDA receptors of glutamate. As already mentioned previously, this latter test is considered the “gold standard” for the evaluation of the possible atypical antipsychotic activity of a drug and is predictive of the efficacy on negative symptoms, as well as on positive ones, of schizophrenia.

[3] = test system: rats; assay: Quinpirol-induced stereotypies; type: in vivo, rat
Excerpt: The data are the average of 6 rats and are expressed in total counts. *P<0.01 vs. treatment with physiological saline (Student's t-test).

[4] = test system: rats; assay: Amphetamine-induced hypermotility test; type: in vivo, rat; conditions: 3 mg/kg i.p.; amphetamine 2.5 mg/kg i.p.; FIG. 1
Experimental: Some behavioural tests were also conducted to identify possible antipsychotic properties of RS-79948-197.

[5] = test system: extracellular levels of dopamine; assay: Microdialysis of extracellular dopamine in rat medial prefrontal cortex; type: in vivo; conditions: free-moving rats, RS-79948-197 3 mg/kg i.p., clozapine 2.5 mg/kg i.p., FIG. 4
Experimental: The drugs were administered at time T=60 min, as indicated by the arrow. The values are expressed as a percentage of the basal value (mean+/−SEM).
Also, the effect of RS-79948-197 on the extracellular levels of dopamine in the rat prefrontal cerebral cortex, through microdialysis in free-moving rats, was further evaluated. As can be clearly seen in the appended FIG. 4, the effects of the two drugs are substantially overlapping, as both have increased the extracellular concentration of dopamine up to about 250% of the respective basal value. Given the hypothesis of cortical hypodopaminergy in the etiopathogenesis of schizophrenia, the ability of a drug to increase the cortical dopamine is considered a favourable effect for its antipsychotic properties.

[6] = biological target: T1, human D2long receptor (Homo sapiens, UniProt P14416); assay: Replacement of [3H]methyl-spiperone binding from human D2long receptor expressed by HEK-293 cells
T1 construct: expressed in transfected cells; host or cells: HEK-293
T1 sequence (P14416 whole entry): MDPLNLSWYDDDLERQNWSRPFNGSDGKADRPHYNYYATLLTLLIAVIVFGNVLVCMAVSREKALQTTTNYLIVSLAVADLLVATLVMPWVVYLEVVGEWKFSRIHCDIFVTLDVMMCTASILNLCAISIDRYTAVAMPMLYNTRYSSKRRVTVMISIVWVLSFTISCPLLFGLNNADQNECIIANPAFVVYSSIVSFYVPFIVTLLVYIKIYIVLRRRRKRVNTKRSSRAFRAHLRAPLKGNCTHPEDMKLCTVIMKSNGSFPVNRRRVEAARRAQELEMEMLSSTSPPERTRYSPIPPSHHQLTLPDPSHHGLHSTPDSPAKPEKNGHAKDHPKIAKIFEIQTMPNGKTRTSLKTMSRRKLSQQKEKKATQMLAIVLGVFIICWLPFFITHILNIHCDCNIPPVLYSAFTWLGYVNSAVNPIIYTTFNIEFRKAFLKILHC
Experimental: In particular, the receptor binding study was conducted by analysing the ability to replace the binding of [^3H]methyl-spiperone from the human D2long receptor expressed by HEK-293 cells (Hall, D. A. and Strange, P. G., 1997, Brit. J. Pharmacol. 121:731-736).

Structure (SMILES) | antagonism of the effect of the selective D2 agonist quinpirol [1] | PPI deficit induced by MK-801 [2] | stereotypies induced by quinpirol ([3]; 3 mg/kg i.p., quinpirol 0.5 mg/kg i.p., FIG. 2) | extrapyramidal effects per se ([3]; rats) | total distance travelled by rats in 120 minutes [4] | effect on quinpirol-induced release at higher concentrations ([1]; higher concentrations than 100 nM) | extracellular concentration of dopamine, percentage of basal value [5] | affinity relative to that of clozapine ([6]; human D2long receptor) | Ki ([6]; human D2long receptor expressed by HEK-293 cells, read-out: Ki, inhibition of [3H]methyl-spiperone binding) [nM]
CCN1CCCC1CNC(=O)c1cc(S(N)(=O)=O)ccc1OC (stereo not shown) [sulpiride, reference compound] | about 40% |  |  |  |  |  |  |  | 
CCS(=O)(=O)N1CCC[C@@H]2CN3CCc4cc(OC)ccc4[C@@H]3C[C@@H]21.Cl [RS-79948-197, (8aR,12aS,13aS)-5,8,8a,9,10, 11, 12, 12a, 13, 13a-decahydro-3-methoxy-12-(ethylsulphonyl)-6H-isoquino[2,1-g][1,6]naphthyridine] | 70% | effectively reduced | effectively reduced | without inducing per se extrapyramidal effects | significantly decreased | completely cancelled | about 250 % of the respective basal value | about twice | 95
